Experimental data: US7550438B2, “Methods for production of growth-promoting proteins and peptides for kidney epithelial cells” (The University of Chicago, priority 1997, dated 2009)

Key:
[1] = test system: BSC-1 cells; experiment: Appearance or release of WGF growth-promoting activity from BSC-1 cells (scrape wounding, heparinase); type: cell-based, African green monkey; settings: for appearance of growth-promoting activity after wounding: cells preincubated 10 minutes with the protease inhibitor
Method: None of these agents inhibited cell growth when added to cells of nonwounded cultures. When added to the medium after the appearance of WGF mitogenic activity, neither PMSF nor aprotinin appeared to inhibit the increment in cell proliferation.
Confluent monolayer cultures were mechanically scraped using a 200 μL pipet tip (Continental Laboratory Products, San Diego, Calif.). […] (This process of scraping the cells has been termed “wounding” and has been used for many years as a model system to study repair of corneal abrasions of the eye. In effect, pressure is applied to cells sufficient to disrupt intercellular adhesion). To determine whether kidney epithelial cells released an autocrine growth factor into the medium after wounding, conditioned culture medium was removed from the culture dish after scrape-wounding a monolayer of BSC-1 cells. An aliquot was assayed for any growth-promoting activity on a nonwounded “detector” culture (1.2×10^6 cells per […]).
Treatment of a confluent monolayer of BSC-1 cells with the enzyme heparinase I (Sigma), but not heparinase III (Sigma), releases WGF mitogenic activity from cells into the culture media. However, this seems to deplete WGF, at least temporarily. When cells are first treated with heparinase I, rinsed, the media aspirated, and the monolayer is then scrape-wounded, no growth-promoting activity is detected in the conditioned media.

[2] = test system: rats with mercuric chloride-induced acute renal failure; experiment: Mercuric chloride-induced acute renal failure in rats: survival and renal function; type: in vivo, rat
Text: Nephrotoxic and ischemic acute renal failure (ARF) induced experimentally in rats have long been used to model this syndrome in humans. […] Male rats weighed 200-225 gm at the start of the experiment. This dose was used because preliminary experiments indicated it results in survival of 25-50% of the animals 7 days later. […] An increase in serum creatinine concentration signals a decline in renal function because the injured kidney is unable to excrete endogenous creatinine in the urine so it accumulates in the blood.
The synthetic peptide […] (14-Ser) (SEQ ID NO: 15) (dissolved in sterile 0.01% bovine serum albumin in phosphate-buffered saline) was injected subcutaneously into rats to determine its effect on survival, recovery of renal fucntion, and stimulation of DNA synthesis. Multiple different peptides were studied including 14-Ser, […] (14-mer) (SEQ ID NO: 39), […] (16-mer) (SEQ ID NO: 4) […] (11-mer) (SEQ ID NO: 6), and […] (11-mer) (SEQ ID NO: 41). Different concentrations and times of administration were tested and compared.
Acute tubular necrosis was induced in 44 rats by the subcutaneous (s.c.) injection of mercuric chloride, and a single dose of 14-ser was administered s.c. 1 hour afterwards. Different amounts of the peptide were given to assesses its capacity to affect the outcome. Survival 7 days later was about twice as high in animals given 100-150 μg of peptide (63%) than in rats given 0-75 μg peptide (29%).
To determine the effect of the peptide on survival and recovery of renal function, acute tubular necrosis was induced in 59 rats; 29 received 14-Ser (100 μg/rat) and 30 received an equal volume of the vehicle s.c. 1 hour after administration of mercuric chloride. Enhanced survival (top panel) and renal functional recovery (bottom panel) of rats give a WGF-derived peptide after mercuric chloride-induced acute tubular necrosis are shown in FIG. 2A and FIG. 2B. Mercuric chloride was injected subcutaneously into each of the 59 rats, and 1 hour later 100 μg of WGF peptide (14-Ser) (n=29 rats) or the vehicle […] was given. Survival was greater in rats given the peptide than in animals receiving the vehicle as early as day 3 after administration of mercuric chloride. Blood was obtained from the tail vein on the days indicated, and serum creatinine concentration was measured. […] On days 2, 3 and 4, the lower creatinine concentration in peptide-treated rats indicates accelerated recovery of kidney function.
Experimental ARF was induced in rats by subcutaneous injection of mercuric chloride. The synthetic peptide […] […] In one experiment a total of 17 rats were injected with a dose of mercuric chloride shown to induce ARF. The different amounts of the peptide (known to stimulate growth of kidney cells in culture) were injected into the animals to assess capacity to improve the outcome. […] In contrast, two of three rats given 100 micrograms of peptide were alive, as were five of six given 200 micrograms. In summary, none of eight rats (0%) given up to 50 micrograms of peptide survived, whereas seven of nine (78%) given 100-200 micrograms did. Thus, the 11-mer WGF peptide improves survival in nephrotoxic ARF.
[…] Four days later, 63% of rats given the 14-Ser peptide were alive compared to 25% of animals receiving the vehicle (chi squared, P-0.0499); 50% of rats receiving EGF were alive (chi squared, P=N.S.). On day 5, 50% of rats given EGF were alive, compared to 12.5% of animals given the vehicle (chi squared, P=0.0436). […] These observations indicate that the 14-Ser peptide and EGF given after renal injury are similar in their ability to improve survival from the ARF syndrome.

[3] = test system: monkey kidney epithelial cells of the BSC-1 line; experiment: Growth-promoting (mitogenic) activity: number of cells in BSC-1 cultures counted four days after addition; type: cell-based, African green monkey
Method: For the assay, cells were detached from the dish with a solution of trypsin and an aliquot was counted in a hemocytometer.
Nontransformed monkey kidney epithelial cells of the BSC-1 line were grown to confluence in Dulbecco's modified Eagle's medium containing 1% calf serum and […] in 55-mm culture dishes at 38° C. in a CO2 incubator. When cells achieved a density of about 10^6 per dish, the spent medium was removed and replaced with fresh medium containing 0.5% calf serum and the 14-amino acid peptide (0.5 μg/ml). Additions of each of the mitogenic signals at maximal concentration were made to the culture medium. Four days later the number of cells in each culture was counted in a hemocytometer. Values obtained were the mean of 3 separate cultures.
Nontransformed monkey kidney epithelial cells of the BSC-1 line were grown to confluence in Dulbecco's modified Eagle's medium containing 1% calf serum and 1.6 μM biotin at 38° C. in a CO2 incubator. When cells achieved a density of about 10^6 per dish, the spent medium was removed and replaced with fresh medium containing 0.5% calf serum and different amounts of the two peptides. Four days later the number of cells in each culture was counted. Each value is the mean of 3 separate cultures.
To delineate the sequence of the smallest peptide that could stimulate renal cell growth, synthetic peptides of different lengths were prepared (see below), and purified by reversed-phase HPLC on a C18 column.
The peptide of interest was then purified on a reversed-phase C18 column HPLC as described herein using a gradient of 1-80% acetonitrile in 0.1% trifluroacetic acid (TFA). The purified peptide was then lyophilized to remove the acetonitrile and TFA and the lyophilized powder was weighed, dissolved in buffer and added to the culture medium to measure its effect on the growth of monkey kidney epithelial cells as described herein. […] A value termed the K1/2, was used.

[4] = test system: BSC-1 cells; experiment: Time of contact with cells required to commit them to accelerated growth (washout, count at four days); type: cell-based, African green monkey; settings: peptide then washed off, cells counted four days later
Method: Confluent monolayers of BSC-1 cells are prepared as herein and exposed to the 14-Ser peptide (0.5 μg/ml) for different amounts of time (0 to 30 minutes). At the end of the defined exposure period, culture medium containing the mitogen was aspirated, the monolayer was rinsed to remove non-adherent peptide, and fresh medium was added. Four days later the number of cells in the culture was counted.
In these experiments a solution containing the peptide of interest was added to the cell monolayer; culture medium was then aspirated at a specified time thereafter. Then fresh medium without the peptide was added and the number of cells was counted four days later.

O=S(=O)(F)Cc1ccccc1 [PMSF, phenylmethylsulfonyl-fluoride]
appearance of growth-promoting activity after wounding [1]: prevented

Cc1ccc(S(=O)(=O)N[C@@H](CCCCN)C(=O)CCl)cc1.Cl [TLCK, L-1-chloro-3-(4-tosylamido)-7-amino-2-heptanone-hydrochloride]
appearance of growth-promoting activity after wounding [1]: prevented

aprotinin
appearance of growth-promoting activity after wounding [1]: prevented

epidermal growth factor [EGF, reference compound]
survival on day 6 ([2]; 14-Ser 100 μg 1 hour after, EGF 20 μg 2 hours after mercuric chloride, vehicle 12%): 37.5% | survival four days later ([2]; 14-Ser 100 μg s.c. 1 hour after, EGF 20 μg s.c. 2 hours after mercuric chloride 2.25 mg/kg, vehicle 25%): 50% | survival on day 5 ([2]; EGF 20 μg s.c. 2 hours after mercuric chloride, vehicle 12.5%): 50% | survival on day 4 ([2]; given 24 hours before mercuric chloride (EGF 20 μg, s.c.)): 25% | concentration equivalent in mitogenic potency to partially-purified WGF [3]: 0.015 µg/mL | stimulation of growth (increase in cell number compared to control at four days) ([3]; agent alone at maximal mitogenic concentration (14-Ser 0.5 μg/ml; EGF, IGF-I 50 ng/ml; acidic FGF 100 pg/ml; basic FGF 1,000 pg/ml; vasopressin 75 pg/ml; K 10.4 mM; Na 180 mM)): 31% | combined mitogenic effect with WGF (additivity) ([3]; maximal concentrations, 11-mer with wound conditioned buffer): additive | stimulation of growth in the presence of the 14-Ser peptide ([3]; mitogenic signal at maximal concentration plus 14-Ser peptide 0.5 μg/ml, four days): 61% | exposure time sufficient for maximal growth stimulation (commitment time) [4]: 4 min

B1: heparinase I: enzyme heparinase I (Sigma) (protein, UniProt Q05819 22-384, looked up)
Heparin lyase I: QQKKSGNIPYRVNVQADSAKQKAIIDNKWVAVGINKPYALQYDDKLRFNGKPSYRFELKAEDNSLEGYAAGETKGRTELSYSYATTNDFKKFPPSVYQNAQKLKTVYHYGKGICEQGSSRSYTFSVYIPSSFPDNATTIFAQWHGAPSRTLVATPEGEIKTLSIEEFLALYDRMIFKKNIAHDKVEKKDKDGKITYVAGKPNGWKVEQGGYPTLAFGFSKGYFYIKANSDRQWLTDKADRNNANPENSEVMKPYSSEYKTSTIAYKMPFAQFPKDCWITFDVAIDWTKYGKEANTILKPGKLDVMMTYTKNKKPQKAHIVNQQEILIGRNDDDGYYFKFGIYRVGNSTVPVTYNLSGYSETAR
release of WGF mitogenic activity from cells into the culture media ([1]; confluent monolayer treated with the enzyme): releases

B2: α2-macroglobulin (protein, UniProt P01023 24-1474, looked up)
Alpha-2-macroglobulin: SVSGKPQYMVLVPSLLHTETTEKGCVLLSYLNETVTVSASLESVRGNRSLFTDLEAENDVLHCVAFAVPKSSSNEEVMFLTVQVKGPTQEFKKRTTVMVKNEDSLVFVQTDKSIYKPGQTVKFRVVSMDENFHPLNELIPLVYIQDPKGNRIAQWQSFQLEGGLKQFSFPLSSEPFQGSYKVVVQKKSGGRTEHPFTVEEFVLPKFEVQVTVPKIITILEEEMNVSVCGLYTYGKPVPGHVTVSICRKYSDASDCHGEDSQAFCEKFSGQLNSHGCFYQQVKTKVFQLKRKEYEMKLHTEAQIQEEGTVVELTGRQSSEITRTITKLSFVKVDSHFRQGIPFFGQVRLVDGKGVPIPNKVIFIRGNEANYYSNATTDEHGLVQFSINTTNVMGTSLTVRVNYKDRSPCYGYQWVSEEHEEAHHTAYLVFSPSKSFVHLEPMSHELPCGHTQTVQAHYILNGGTLLGLKKLSFYYLIMAKGGIVRTGTHGLLVKQEDMKGHFSISIPVKSDIAPVARLLIYAVLPTGDVIGDSAKYDVENCLANKVDLSFSPSQSLPASHAHLRVTAAPQSVCALRAVDQSVLLMKPDAELSASSVYNLLPEKDLTGFPGPLNDQDNEDCINRHNVYINGITYTPVSSTNEKDMYSFLEDMGLKAFTNSKIRKPKMCPQLQQYEMHGPEGLRVGFYESDVMGRGHARLVHVEEPHTETVRKYFPETWIWDLVVVNSAGVAEVGVTVPDTITEWKAGAFCLSEDAGLGISSTASLRAFQPFFVELTMPYSVIRGEAFTLKATVLNYLPKCIRVSVQLEASPAFLAVPVEKEQAPHCICANGRQTVSWAVTPKSLGNVNFTVSAEALESQELCGTEVPSVPEHGRKDTVIKPLLVEPEGLEKETTFNSLLCPSGGEVSEELSLKLPPNVVEESARASVSVLGDILGSAMQNTQNLLQMPYGCGEQNMVLFAPNIYVLDYLNETQQLTPEIKSKAIGYLNTGYQRQLNYKHYDGSYSTFGERYGRNQGNTWLTAFVLKTFAQARAYIFIDEAHITQALIWLSQRQKDNGCFRSSGSLLNNAIKGGVEDEVTLSAYITIALLEIPLTVTHPVVRNALFCLESAWKTAQEGDHGSHVYTKALLAYAFALAGNQDKRKEVLKSLNEEAVKKDNSVHWERPQKPKAPVGHFYEPQAPSAEVEMTSYVLLAYLTAQPAPTSEDLTSATNIVKWITKQQNAQGGFSSTQDTVVALHALSKYGAATFTRTGKAAQVTIQSSGTFSSKFQVDNNNRLLLQQVSLPELPGEYSMKVTGEGCVYLQTSLKYNILPEKEEFPFALGVQTLPQTCDEPKAHTSFQISLSVSYTGSRSASNMAIVDVKMVSGFIPLKPTVKMLERSNHVSRTEVSSNHVLIYLDKVSNQTLSLFFTVLQDVPVRDLKPAIVKVYDYYETDEFAIAEYNAPCSKDLGNA
appearance of growth-promoting activity after wounding [1]: prevented
